Experimental data: the supplement of paper PMC10307832

Columns and labels:
Experiment in all cases: relative viability (nuclei count vs DMSO), 5 days (fraction); higher = more cells survive
[1] = compound: O=C(C[C@H]1NCCC[C@@H]1O)Cn1cnc2cc(Br)c(Cl)cc2c1=O (racemic) [Halofuginone] + CC(C)C[C@H](NC(=O)[C@H](Cc1ccccc1)NC(=O)c1cnccn1)B(O)O [Bortezomib] (partner 0.002 µM)
Summary of the method: (§1)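 A single step with final 0.05% Triton X-100, 1% formaldehyde and 1 ug/ml Hoechst fixed the cells and stained nuclei 5 days after treatment. Lung cancer cell lines in 1536-well plates had been treated by pin tool the day after seeding with one drug alone or a fixed anchor-drug dose plus five library-drug doses (not always all listed) in √10 steps, and nuclei were counted on 4× images. Relative viability is the ratio of nuclei in treated wells to nuclei in vehicle wells, taken as the median of duplicate plates.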

Decitabine + Luminespib = compound: Nc1ncn([C@H]2C[C@H](O)[C@@H](CO)O2)c(=O)n1 [Decitabine] + CCNC(=O)c1noc(-c2cc(C(C)C)c(O)cc2O)c1-c1ccc(CN2CCOCC2)cc1 [Luminespib] (partner 0.01 µM)
Summary of the method: as §1

Decitabine + Dasatinib = compound: Nc1ncn([C@H]2C[C@H](O)[C@@H](CO)O2)c(=O)n1 [Decitabine] + Cc1nc(Nc2ncc(C(=O)Nc3c(C)cccc3Cl)s2)cc(N2CCN(CCO)CC2)n1 [Dasatinib] (partner 0.075 µM)
Summary of the method: as §1

Cediranib + OSI-027 = compound: COc1cc2c(Oc3ccc4[nH]c(C)cc4c3F)ncnc2cc1OCCCN1CCCC1 [Cediranib] + COc1cccc2cc(-c3nc([C@H]4CC[C@H](C(=O)O)CC4)n4ncnc(N)c34)[nH]c12 [OSI-027] (partner 0.5 µM)
Summary of the method: as §1

Cell Line | relative viability ([1]; first compound 0.001 µM) | relative viability ([1]; first compound 0.003162 µM) | relative viability ([1]; first compound 0.01 µM) | relative viability ([1]; first compound 0.03162 µM) | relative viability ([1]; first compound 0.1 µM) | relative viability (Decitabine + Luminespib; first compound 0.04 µM) | relative viability (Decitabine + Luminespib; first compound 0.1265 µM) | relative viability (Decitabine + Luminespib; first compound 0.4 µM) | relative viability (Decitabine + Luminespib; first compound 1.265 µM) | relative viability (Decitabine + Luminespib; first compound 4 µM) | relative viability (Decitabine + Dasatinib; first compound 0.04 µM) | relative viability (Decitabine + Dasatinib; first compound 0.1265 µM) | relative viability (Decitabine + Dasatinib; first compound 0.4 µM) | relative viability (Decitabine + Dasatinib; first compound 1.265 µM) | relative viability (Decitabine + Dasatinib; first compound 4 µM) | relative viability (Cediranib + OSI-027; first compound 0.1265 µM) | relative viability (Cediranib + OSI-027; first compound 0.4 µM) | relative viability (Cediranib + OSI-027; first compound 1.265 µM) | relative viability (Cediranib + OSI-027; first compound 4 µM) | relative viability (Cediranib + OSI-027; first compound 0.04 µM)
NCI-H727 | 0.981 | 0.798 | 0.927 | 0.856 | 0.468 | 0.499 | 0.289 | 0.339 | 0.288 | 0.407 | 0.397 | 0.458 | 0.338 | 0.334 | 0.34 | 0.486 | 0.523 | 0.468 | 0.617 | –
PC-3 [JPC-3] | 0.852 | 0.875 | 0.736 | 0.799 | 0.873 | 0.43 | 0.708 | 0.454 | 0.408 | 0.488 | 0.628 | 0.782 | 0.565 | 0.437 | 0.399 | 0.824 | 0.73 | 0.688 | 0.627 | 0.777
SW 1573 | 1.03 | 1.02 | 1.15 | 0.653 | 0.227 | 0.135 | 0.172 | 0.201 | 0.143 | 0.151 | 0.458 | 0.433 | 0.416 | 0.153 | 0.163 | 0.644 | 0.604 | 0.427 | 0.662 | 0.682
NCI-H2228 | 1.06 | 0.856 | 0.988 | 0.426 | 0.151 | 0.102 | 0.134 | 0.116 | 0.148 | 0.165 | 0.324 | 0.354 | 0.135 | 0.161 | 0.155 | 0.767 | 0.496 | 0.335 | 0.68 | 0.552
NCI-H1650 | 0.234 | 0.24 | 0.208 | 0.221 | 0.203 | 0.188 | 0.182 | 0.194 | 0.201 | 0.179 | 0.328 | 0.314 | 0.247 | 0.26 | 0.248 | 0.596 | 0.589 | 0.577 | 0.436 | 0.781
NCI-H1792 | 0.965 | 1.01 | 1.01 | 0.942 | 0.866 | 0.565 | 0.446 | 0.465 | 0.428 | 0.311 | 0.835 | 0.86 | 0.861 | 0.677 | 0.558 | 0.732 | 0.661 | 0.76 | 0.757 | 0.731
COR-L 105 | 1.01 | 0.86 | 0.769 | 0.674 | 0.44 | 0.561 | 0.517 | 0.714 | 0.469 | 0.571 | 0.254 | 0.353 | 0.262 | 0.282 | 0.305 | 0.904 | 0.553 | 0.552 | 0.601 | 0.6
LU99A | 1.15 | 1.1 | 1.07 | 1.14 | 0.8 | 0.248 | 0.24 | 0.318 | 0.251 | 0.24 | 0.508 | 0.615 | 0.653 | 0.481 | 0.373 | 0.314 | 0.305 | 0.286 | 0.288 | 0.281
H3255 | 0.906 | 0.664 | 0.616 | 0.767 | 0.651 | – | 0.765 | 0.64 | 0.657 | 0.601 | – | 0.341 | 0.251 | 0.351 | 0.252 | – | 0.638 | 0.58 | 0.533 | 0.658
NCI-H1734 | 1.14 | 0.919 | 0.939 | 0.814 | 0.632 | 0.182 | 0.172 | 0.165 | 0.192 | 0.157 | 0.433 | 0.378 | 0.423 | 0.298 | 0.219 | 0.705 | 0.583 | 0.515 | 0.64 | 0.517
NCI-H650 | 0.903 | 0.877 | 0.717 | 0.694 | 0.576 | 0.627 | 0.652 | 0.489 | 0.314 | 0.315 | 0.422 | 0.443 | 0.357 | 0.344 | 0.275 | 0.521 | 0.508 | 0.499 | 0.542 | 0.485
NCI-H1915 | 0.522 | 1.05 | 0.93 | 1 | 0.973 | 0.331 | 0.465 | 0.267 | 0.186 | 0.219 | 0.253 | 0.228 | 0.189 | 0.2 | 0.193 | 0.516 | 0.566 | 0.624 | 0.669 | 0.559
NCI-H2009 | 1.07 | 1.28 | 0.95 | 0.799 | 0.32 | 0.929 | 0.68 | 0.54 | 0.328 | 0.348 | 0.264 | 0.273 | 0.252 | 0.204 | 0.185 | 0.538 | 0.658 | 0.518 | 0.639 | 0.548
NCI-H1651 | 0.93 | 0.972 | 0.915 | 0.898 | 0.903 | 0.942 | 0.844 | 0.828 | 0.69 | 0.658 | 0.418 | 0.506 | 0.398 | 0.341 | 0.385 | 0.652 | 0.721 | 0.606 | 0.778 | 0.59
HOP-62 | 0.679 | 0.702 | 0.62 | 0.632 | 0.522 | 0.488 | 0.342 | 0.21 | 0.187 | 0.209 | 0.634 | 0.622 | 0.284 | 0.14 | 0.147 | 0.813 | 0.771 | 0.677 | 0.791 | 0.78
CAL-12T | 1.13 | 1.04 | – | 1.37 | 0.894 | 0.612 | 0.359 | – | 0.298 | 0.249 | 0.356 | 0.477 | – | 0.212 | 0.235 | 0.568 | 0.624 | 0.416 | 0.992 | 0.814
LCLC-103H | 1.06 | 0.9 | 1.1 | 0.956 | 1.03 | 0.863 | 0.829 | 0.685 | 0.594 | 0.472 | 0.507 | 0.57 | 0.457 | 0.337 | 0.374 | 0.501 | 0.474 | 0.467 | 0.504 | 0.469
NCI-H3122 | 1.05 | 1.06 | 1 | 0.954 | 1.04 | 0.0814 | 0.0807 | 0.0785 | 0.0889 | 0.0802 | 0.665 | 0.833 | 0.233 | 0.321 | 0.459 | – | 0.897 | 0.888 | 0.975 | 1.09
PC-14 | 0.865 | 0.819 | 0.697 | 0.13 | 0.0654 | 0.145 | 0.227 | 0.173 | 0.168 | 0.131 | 0.0322 | 0.142 | 0.0565 | 0.0706 | 0.0858 | 0.894 | 0.735 | 0.61 | 0.724 | 0.993
BEN | 0.865 | 0.826 | 0.865 | 0.682 | 0.408 | 0.332 | 0.373 | 0.243 | 0.282 | 0.242 | 0.373 | 0.406 | 0.225 | 0.251 | 0.218 | – | 0.28 | 0.311 | 0.286 | 0.308
EPLC-272H | 0.772 | 1.09 | 0.918 | 0.98 | 0.779 | – | 0.561 | 0.249 | 0.227 | 0.321 | – | 0.297 | 0.118 | 0.232 | 0.144 | – | 0.287 | – | 0.232 | 0.288
ChaGo-K-1 | 0.996 | 0.875 | 0.948 | 1.05 | 0.91 | 0.584 | 0.487 | 0.33 | 0.277 | 0.39 | 0.467 | 0.549 | 0.311 | 0.329 | 0.346 | 0.363 | 0.535 | 0.572 | 0.615 | 0.441
HCC-827 | 1.04 | 1.03 | 0.955 | 0.998 | 0.918 | 0.239 | 0.31 | 0.246 | 0.301 | 0.316 | 0.139 | 0.317 | 0.325 | 0.284 | 0.267 | – | 0.737 | 0.74 | 0.671 | 0.751
NCI-H1993 | 1.27 | 1.14 | 1.07 | 1.27 | 0.786 | 0.725 | 0.826 | 0.787 | 0.696 | 0.674 | 0.542 | 0.57 | 0.608 | 0.484 | 0.55 | 0.579 | 0.548 | 0.506 | 0.545 | 0.421
NCI-H647 | 1.2 | 1.1 | 0.833 | 0.912 | 0.367 | 0.105 | 0.141 | 0.127 | 0.12 | 0.103 | 0.212 | 0.261 | 0.196 | 0.104 | 0.0939 | 0.694 | 0.549 | 0.49 | 0.841 | 0.614
NCI-H460 | 1.07 | 1.09 | 0.922 | 0.66 | 0.0555 | 0.0345 | 0.0356 | 0.0279 | 0.034 | 0.0328 | 0.453 | 0.682 | 0.341 | 0.239 | 0.183 | 0.684 | 0.573 | 0.605 | 0.613 | 0.852
EMC-BAC-2 | 1.1 | 1.09 | 1.08 | 1.02 | 0.986 | 1.02 | 0.927 | 0.715 | 0.602 | 0.584 | 0.334 | 0.343 | 0.343 | 0.284 | 0.26 | 0.503 | 0.38 | 0.319 | 0.367 | 0.377
